Laboratory results reported in ChEMBL document CHEMBL1201862, “PubChem BioAssay data set” (2004).
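Each compound was tested at five concentrations against cells in 96-well plates for 48 hours. GI50 marks 50% less growth.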 Calls of active or inactive are those of the source. No stated cut-off is given here; in the data, active = GI50 up to about 1.1 µM and inactive = higher.

What was measured:
Assay in all cases: inhibition of tumour cell growth, NCI panel, 48 h
A549 = tested on: A549
ACHN = tested on: ACHN
COLO 205 = tested on: COLO 205
EKVX = tested on: EKVX
HCC 2998 = tested on: HCC 2998
HCT-15 = tested on: HCT-15
HL-60 = tested on: HL-60
IGROV-1 = tested on: IGROV-1
MOLT-4 = tested on: MOLT-4
OVCAR-3 = tested on: OVCAR-3
OVCAR-8 = tested on: OVCAR-8
SF-268 = tested on: SF-268
SK-MEL-28 = tested on: SK-MEL-28
SK-OV-3 = tested on: SK-OV-3
SN12C = tested on: SN12C
UO-31 = tested on: UO-31

SMILES: COc1ccc(-n2c(=O)c3nc(S)[nH]c3n(-c3ccc(OC)cc3)c2=S)cc1
- GI50 (A549): > 100 µM (inactive)
- GI50 (ACHN): > 100 µM (inactive)
- GI50 (COLO 205): > 100 µM (inactive)
- GI50 (EKVX): > 100 µM (inactive)
- GI50 (HCC 2998): > 100 µM (inactive)
- GI50 (HCT-15): > 100 µM
- GI50 (HL-60): > 100 µM (inactive)
- GI50 (IGROV-1): > 100 µM (inactive)
- GI50 (MOLT-4): > 100 µM (inactive)
- GI50 (OVCAR-3): > 100 µM (inactive)
- GI50 (OVCAR-8): > 100 µM (inactive)
- GI50 (SF-268): > 100 µM (inactive)
- GI50 (SK-MEL-28): > 100 µM (inactive)
- GI50 (SK-OV-3): > 100 µM (inactive)
- GI50 (SN12C): > 100 µM (inactive)
- GI50 (UO-31): > 100 µM (inactive)

SMILES: CC(=O)C1C(=O)C(C(C)=O)C2C3C=CC(C3)C12 (configuration not stated)
- GI50 (A549): > 100 µM (inactive)
- GI50 (ACHN): > 100 µM (inactive)
- GI50 (COLO 205): > 100 µM (inactive)
- GI50 (HCC 2998): > 100 µM (inactive)
- GI50 (HCT-15): > 100 µM
- GI50 (HL-60): > 100 µM (inactive)
- GI50 (IGROV-1): > 100 µM (inactive)
- GI50 (MOLT-4): > 100 µM (inactive)
- GI50 (OVCAR-3): > 100 µM (inactive)
- GI50 (OVCAR-8): > 100 µM (inactive)
- GI50 (SF-268): > 100 µM (inactive)
- GI50 (SK-MEL-28): > 100 µM (inactive)
- GI50 (SK-OV-3): > 100 µM (inactive)
- GI50 (SN12C): > 100 µM (inactive)
- GI50 (UO-31): > 100 µM (inactive)

SMILES: O=P1(c2ccccc2)c2ccccc2CCc2ccccc21
- GI50 (A549): 86.5 µM (inactive)
- GI50 (COLO 205): > 100 µM (inactive)
- GI50 (EKVX): 66.4 µM (inactive)
- GI50 (HCC 2998): > 100 µM (inactive)
- GI50 (HCT-15): 68.9 µM
- GI50 (HL-60): 16.6 µM (inactive)
- GI50 (IGROV-1): > 100 µM (inactive)
- GI50 (MOLT-4): 33.6 µM (inactive)
- GI50 (OVCAR-3): 40.8 µM (inactive)
- GI50 (OVCAR-8): > 100 µM (inactive)
- GI50 (SF-268): 95.9 µM (inactive)
- GI50 (SK-MEL-28): > 100 µM (inactive)
- GI50 (SK-OV-3): 58.2 µM (inactive)
- GI50 (SN12C): 81.1 µM (inactive)
- GI50 (UO-31): 53.3 µM (inactive)

SMILES: O=C(O)CCN1CCN(CCC(=O)O)CCN(CCC(=O)O)CC1
- GI50 (A549): 69.3 µM (inactive)
- GI50 (ACHN): > 100 µM (inactive)
- GI50 (COLO 205): 92.7 µM (inactive)
- GI50 (EKVX): > 100 µM (inactive)
- GI50 (HCC 2998): > 100 µM (inactive)
- GI50 (HCT-15): 91.2 µM
- GI50 (HL-60): 25.5 µM (inactive)
- GI50 (IGROV-1): > 100 µM (inactive)
- GI50 (MOLT-4): > 100 µM (inactive)
- GI50 (OVCAR-3): > 100 µM (inactive)
- GI50 (OVCAR-8): > 100 µM (inactive)
- GI50 (SK-MEL-28): > 100 µM (inactive)
- GI50 (SK-OV-3): > 100 µM (inactive)
- GI50 (SN12C): > 100 µM (inactive)
- GI50 (UO-31): > 100 µM (inactive)

SMILES: CC[C@@H]1/C=C/C=C/C[C@H](C)[C@@H](O)[C@](C)(O)C(=O)[C@H](C)[C@@H](O)[C@H](C)C(=O)[C@H](C)[C@@H](O)[C@H](C)/C=C/C(=O)O[C@H]2[C@@H](C)[C@@H](CC1)O[C@]1(O[C@H](CC(C)O)[C@H](C)CC1=O)[C@@H]2C (some centres not stated)
- GI50 (A549): < 0.0025 µM (active)
- GI50 (ACHN): 2.65 µM (inactive)
- GI50 (COLO 205): < 0.0025 µM (active)
- GI50 (EKVX): < 0.0025 µM (active)
- GI50 (HCC 2998): 3.53 µM (inactive)
- GI50 (HCT-15): 3.28 µM
- GI50 (HL-60): 0.107 µM (active)
- GI50 (IGROV-1): 5.22 µM (inactive)
- GI50 (MOLT-4): 3.82 µM (inactive)
- GI50 (OVCAR-3): 2.92 µM (inactive)
- GI50 (OVCAR-8): < 0.0025 µM (active)
- GI50 (SF-268): 3.71 µM (inactive)
- GI50 (SK-MEL-28): 6 µM (inactive)
- GI50 (SK-OV-3): 5.66 µM (inactive)
- GI50 (SN12C): 3.74 µM (inactive)
- GI50 (UO-31): 2.81 µM (inactive)

SMILES: COc1cc(C(=O)Oc2c(C#N)sc3c2c(=O)n(-c2ccccc2)c(=S)n3-c2ccccc2)cc(OC)c1OC
- GI50 (A549): 21.5 µM (inactive)
- GI50 (ACHN): 8.87 µM (inactive)
- GI50 (COLO 205): 15.8 µM (inactive)
- GI50 (EKVX): 19.3 µM (inactive)
- GI50 (HCC 2998): 19.6 µM (inactive)
- GI50 (HCT-15): 18.9 µM
- GI50 (HL-60): 18.8 µM (inactive)
- GI50 (IGROV-1): 19.1 µM (inactive)
- GI50 (MOLT-4): 16.6 µM (inactive)
- GI50 (OVCAR-3): 22.7 µM (inactive)
- GI50 (OVCAR-8): 10.9 µM (inactive)
- GI50 (SF-268): 14.3 µM (inactive)
- GI50 (SK-MEL-28): 14.2 µM (inactive)
- GI50 (SK-OV-3): 22 µM (inactive)
- GI50 (SN12C): 13.8 µM (inactive)

SMILES: C1C2CC3CC1CC(Nc1nc(NC45CC6CC(CC(C6)C4)C5)nc(NC45CC6CC(CC(C6)C4)C5)n1)(C2)C3
- GI50 (A549): > 53 µM (inactive)
- GI50 (ACHN): 51.2 µM (inactive)
- GI50 (COLO 205): 28.7 µM (inactive)
- GI50 (EKVX): > 43.5 µM (inactive)
- GI50 (HCC 2998): 72.1 µM (inactive)
- GI50 (HCT-15): 62.1 µM
- GI50 (HL-60): 39.3 µM (inactive)
- GI50 (MOLT-4): 57.3 µM (inactive)
- GI50 (OVCAR-3): > 23.6 µM (inactive)
- GI50 (OVCAR-8): > 26 µM (inactive)
- GI50 (SF-268): > 100 µM (inactive)
- GI50 (SK-MEL-28): > 31.1 µM (inactive)
- GI50 (SK-OV-3): > 100 µM (inactive)
- GI50 (SN12C): > 100 µM (inactive)
- GI50 (UO-31): > 38.3 µM (inactive)
